Literature values, collected in patent US20230277473A1 (priority 2023, published 2023).

Columns and labels:
[1] = in vivo

| SMILES | half-life [1] | solubility in water |
| --- | --- | --- |
| Cc1nc2n(c(=O)c1CCN1CCC(c3noc4cc(F)ccc34)CC1)CCCC2O (centres unmarked) [9-hydroxyrisperidone] | 21 h |  |
| Cc1nc2n(c(=O)c1CCN1CCC(c3noc4cc(F)ccc34)CC1)CCCC2 [RPD, risperidone] |  | almost insoluble in water |
